{
  "source": "patent EP1928451B1",
  "about": "“METHODS FOR TREATING SUBSTANCE-RELATED DISORDERS” (SK Biopharmaceuticals Co., LTD, priority 2005, dated 2007)",
  "key": {"[1]": {"tested_on": "selectively-bred alcohol preferring (P) rats", "assay": "Chronic administration: two-bottle choice alcohol intake in alcohol preferring rats", "format": "in vivo", "method": "(§1) A compound of the present invention was tested in ethanol preferring rats, a model for acute and chronic drug addiction in humans using an adaptation of a published method (See, Rezvani, AH et al. Alcohol & Alcoholism, Vol. 25, No. 5, pp. 573-575, 1990, Rezvani AH, et al., Alcohol and Alcoholism (Oxford), 2000, 35(1), 76-83).\n(§2) An enantiomer of Formula (Ib) was orally administered in a dose range of from about 10 to about 90 mg/kg in test and control treatment groups of 10 rats per group over a period of 14 days. Test conditions reflected approaches for evaluating patterns of drinking (e.g., single or multiple events).\nAdult male selectively-bred alcohol preferring (P) rats were used. The selectively-bred alcohol-preferring (P) rats have been characterized and have been widely used to study the effects of different compounds on voluntary alcohol intake (Rezvani et al, 1990, 1991, 1992a, 1992b, 1999, 2000, 2002; 2003; Murphy et al, 1988; Overstreet et al., 1992, 1999; Li and McBride, 1995).\nRats were housed individually in wire mesh cages under a constant room temperature of 22 +1 °C and 12:12 light-dark cycle (8:00-20:00, dark). Animal were fed Agway Prolab Rat/Mouse/ Hamster 3000 formula and water ad libitum.\n(§3) Establishment of baseline alcohol intake: Alcohol intake was determined using a standard two-bottle choice method (as described in Murphy et al. 1988; McBride et al. 1990; Rezvani et al. 1990, 1991, 1993, 1995, 1997, Rezvani and Grady, 1994).\nAnimals were first given free access to water in a graduated Richter tube for 1 day. After the first day, the animals were given access to only a solution of 10% (v/v) ethanol for 3 consecutive days. During this period animals became accustomed to drinking from Richter tubes and to the taste and pharmacological effects of alcohol. Thereafter, they were given free access to both water and a solution of 10% alcohol for at least 3 consecutive weeks and throughout of the period of study. The rats had free access to food. Water and alcohol intake was recorded at 6 and 24 hour after the treatment, food intake was measured at 24 hour. Animal body weight was measured every day.\nThe effect of chronic administration of a test compound on alcohol intake and tolerance to the anti-craving effects of the test compound was tested in naïve rats treated (via gavage tube) once a day either vehicle or test compound. A test compound dose of 45 mg/Kg was selected as an effective dose for chronic administration based on the results of the acute administration study phase. Themost effective dose was then used for the chronic adminstiration phase and administered for 14 consecutive days. Alcohol and water intake was recorded 6 and 24 h after each treatment administration and food intake was recorded at 24 hr.\nThe results were presented as means ±SEM (Standard Error of the Means). Alcohol intake (g/kg) was calculated by multiplying the volume of alcohol consumed in mL by 10% and 0.7893 (a factor representing ethanol density)/body weight in kg. Alcohol preference, expressed as percentage, was calculated as follows (volume of alcohol consumed (mL)/total fluid intake (mL)) x 100 (as described in Rezvani and Grady,. 1994; Rezvani et al., 1997). Statistical differences between treatment and control groups were determined by using ANOVA and Turkey Student's t test for multiple comparisons."}, "[2]": {"tested_on": "selectively-bred alcohol preferring (P) rats", "assay": "Acute administration: two-bottle choice alcohol intake in alcohol preferring rats", "format": "in vivo", "settings": "dose of about 45 mg/kg and up, oral", "method": "as §1, §2\nAdult male selectively-bred alcohol preferring (P) rats were used. […]\nas §3\nAnimals were first given free access to water in a graduated Richter tube for 1 day. […] Water and alcohol intake was recorded at 6 and 24 hour after the treatment, food intake was measured at 24 hour. Animal body weight was measured every day. […]\nThe results were presented as means ±SEM (Standard Error of the Means). […] Statistical differences between treatment and control groups were determined by using ANOVA and Turkey Student's t test for multiple comparisons."}, "[3]": {"settings": "BL (baseline, before treatment), drug group"}, "[4]": {"settings": "Day 1, 45 mg/Kg once a day via gavage"}, "[5]": {"settings": "Day 2, 45 mg/Kg once a day via gavage"}, "[6]": {"settings": "Day 3, 45 mg/Kg once a day via gavage"}, "[7]": {"settings": "Day 4, 45 mg/Kg once a day via gavage"}, "[8]": {"settings": "Day 5, 45 mg/Kg once a day via gavage"}, "[9]": {"settings": "Day 6, 45 mg/Kg once a day via gavage"}, "[10]": {"settings": "Day 7, 45 mg/Kg once a day via gavage"}, "[11]": {"settings": "Day 8, 45 mg/Kg once a day via gavage"}, "[12]": {"settings": "Day 9, 45 mg/Kg once a day via gavage"}, "[13]": {"settings": "Day 10, 45 mg/Kg once a day via gavage"}, "[14]": {"settings": "Day 11, 45 mg/Kg once a day via gavage"}, "[15]": {"settings": "Day 12, 45 mg/Kg once a day via gavage"}, "[16]": {"settings": "Day 13, 45 mg/Kg once a day via gavage"}, "[17]": {"settings": "Day 14, 45 mg/Kg once a day via gavage"}},
  "data": [
    {"smiles": "NC(=O)OC[C@@H](O)c1ccccc1Cl", "note": "[Drug]", "values": [
      {"measurement": "tolerance for the test compound's affect on ethanol intake", "setting": "[1]; 45 mg/Kg once a day for 14 consecutive days", "value": "without developing a tolerance"},
      {"measurement": "Alcohol Intake", "setting": "[1]; [3]", "value": 5.30, "unit": "g/kg"},
      {"measurement": "Alcohol Pref", "setting": "[1]; [3]", "value": 71, "unit": "%"},
      {"measurement": "Body Weight", "setting": "[1]; [3]", "value": 384, "unit": "g"},
      {"measurement": "Water Intake", "setting": "[1]; [3]", "value": 30, "unit": "g/kg"},
      {"measurement": "Alcohol Intake", "setting": "[1]; [4]", "value": 1.61, "unit": "g/kg"},
      {"measurement": "Alcohol Pref", "setting": "[1]; [4]", "value": 28, "unit": "%"},
      {"measurement": "Body Weight", "setting": "[1]; [4]", "value": 418, "unit": "g"},
      {"measurement": "Water Intake", "setting": "[1]; [4]", "value": 62, "unit": "g/kg"},
      {"measurement": "Alcohol Intake", "setting": "[1]; [5]", "value": 1.31, "unit": "g/kg"},
      {"measurement": "Alcohol Pref", "setting": "[1]; [5]", "value": 24, "unit": "%"},
      {"measurement": "Body Weight", "setting": "[1]; [5]", "value": 415, "unit": "g"},
      {"measurement": "Water Intake", "setting": "[1]; [5]", "value": 60, "unit": "g/kg"},
      {"measurement": "Alcohol Intake", "setting": "[1]; [6]", "value": 1.37, "unit": "g/kg"},
      {"measurement": "Alcohol Pref", "setting": "[1]; [6]", "value": 24, "unit": "%"},
      {"measurement": "Body Weight", "setting": "[1]; [6]", "value": 413, "unit": "g"},
      {"measurement": "Water Intake", "setting": "[1]; [6]", "value": 60, "unit": "g/kg"},
      {"measurement": "Alcohol Intake", "setting": "[1]; [7]", "value": 1.03, "unit": "g/kg"},
      {"measurement": "Alcohol Pref", "setting": "[1]; [7]", "value": 16, "unit": "%"},
      {"measurement": "Body Weight", "setting": "[1]; [7]", "value": 415, "unit": "g"},
      {"measurement": "Water Intake", "setting": "[1]; [7]", "value": 68, "unit": "g/kg"},
      {"measurement": "Alcohol Intake", "setting": "[1]; [8]", "value": 1.24, "unit": "g/kg"},
      {"measurement": "Alcohol Pref", "setting": "[1]; [8]", "value": 21, "unit": "%"},
      {"measurement": "Body Weight", "setting": "[1]; [8]", "value": 419, "unit": "g"},
      {"measurement": "Water Intake", "setting": "[1]; [8]", "value": 68, "unit": "g/kg"},
      {"measurement": "Alcohol Intake", "setting": "[1]; [9]", "value": 1.10, "unit": "g/kg"},
      {"measurement": "Alcohol Pref", "setting": "[1]; [9]", "value": 21, "unit": "%"},
      {"measurement": "Body Weight", "setting": "[1]; [9]", "value": 421, "unit": "g"},
      {"measurement": "Water Intake", "setting": "[1]; [9]", "value": 61, "unit": "g/kg"},
      {"measurement": "Alcohol Intake", "setting": "[1]; [10]", "value": 1.85, "unit": "g/kg"},
      {"measurement": "Alcohol Pref", "setting": "[1]; [10]", "value": 34, "unit": "%"},
      {"measurement": "Body Weight", "setting": "[1]; [10]", "value": 424, "unit": "g"},
      {"measurement": "Water Intake", "setting": "[1]; [10]", "value": 48, "unit": "g/kg"},
      {"measurement": "Alcohol Intake", "setting": "[1]; [11]", "value": 2.21, "unit": "g/kg"},
      {"measurement": "Alcohol Pref", "setting": "[1]; [11]", "value": 35, "unit": "%"},
      {"measurement": "Body Weight", "setting": "[1]; [11]", "value": 426, "unit": "g"},
      {"measurement": "Water Intake", "setting": "[1]; [11]", "value": 52, "unit": "g/kg"},
      {"measurement": "Alcohol Intake", "setting": "[1]; [12]", "value": 2.19, "unit": "g/kg"},
      {"measurement": "Alcohol Pref", "setting": "[1]; [12]", "value": 45, "unit": "%"},
      {"measurement": "Body Weight", "setting": "[1]; [12]", "value": 429, "unit": "g"},
      {"measurement": "Water Intake", "setting": "[1]; [12]", "value": 40, "unit": "g/kg"},
      {"measurement": "Alcohol Intake", "setting": "[1]; [13]", "value": 3.06, "unit": "g/kg"},
      {"measurement": "Alcohol Pref", "setting": "[1]; [13]", "value": 52, "unit": "%"},
      {"measurement": "Body Weight", "setting": "[1]; [13]", "value": 431, "unit": "g"},
      {"measurement": "Water Intake", "setting": "[1]; [13]", "value": 44, "unit": "g/kg"},
      {"measurement": "Alcohol Intake", "setting": "[1]; [14]", "value": 2.93, "unit": "g/kg"},
      {"measurement": "Alcohol Pref", "setting": "[1]; [14]", "value": 57, "unit": "%"},
      {"measurement": "Body Weight", "setting": "[1]; [14]", "value": 435, "unit": "g"},
      {"measurement": "Water Intake", "setting": "[1]; [14]", "value": 30, "unit": "g/kg"},
      {"measurement": "Alcohol Intake", "setting": "[1]; [15]", "value": 2.67, "unit": "g/kg"},
      {"measurement": "Alcohol Pref", "setting": "[1]; [15]", "value": 58, "unit": "%"},
      {"measurement": "Body Weight", "setting": "[1]; [15]", "value": 436, "unit": "g"},
      {"measurement": "Water Intake", "setting": "[1]; [15]", "value": 27, "unit": "g/kg"},
      {"measurement": "Alcohol Intake", "setting": "[1]; [16]", "value": 2.37, "unit": "g/kg"},
      {"measurement": "Alcohol Pref", "setting": "[1]; [16]", "value": 42, "unit": "%"},
      {"measurement": "Body Weight", "setting": "[1]; [16]", "value": 431, "unit": "g"},
      {"measurement": "Water Intake", "setting": "[1]; [16]", "value": 48, "unit": "g/kg"},
      {"measurement": "Alcohol Intake", "setting": "[1]; [17]", "value": 2.32, "unit": "g/kg"},
      {"measurement": "Alcohol Pref", "setting": "[1]; [17]", "value": 40, "unit": "%"},
      {"measurement": "Body Weight", "setting": "[1]; [17]", "value": 437, "unit": "g"},
      {"measurement": "Water Intake", "setting": "[1]; [17]", "value": 54, "unit": "g/kg"},
      {"measurement": "effect on alcohol intake", "setting": "[2]", "value": "significant effect on alcohol intake"}
    ]}
  ]
}
